Laboratory results published in US20080255183A1, “N-[HETEROARYLCARBONYL]-3-THIENYL-L-ALANINE DERIVATIVES AS a5beta1 ANTAGONISTS” (ASTRAZENECA AB, priority 2007, published 2008).
Like-named read-outs stand apart in the source and are kept apart here.

Legend:
[1] = target: recombinant human α5β1 integrin (Homo sapiens, UniProt P05556+P08648); experiment: In vitro binding assay (a): inhibition of binding of α5β1 integrin to a fragment of human fibronectin (Fn9-10), Origen electrochemiluminescence; conditions: geometric mean of the measured IC50 values; n given below each value
Chain of recombinant human α5β1 integrin (P08648 42-894 limits assumed): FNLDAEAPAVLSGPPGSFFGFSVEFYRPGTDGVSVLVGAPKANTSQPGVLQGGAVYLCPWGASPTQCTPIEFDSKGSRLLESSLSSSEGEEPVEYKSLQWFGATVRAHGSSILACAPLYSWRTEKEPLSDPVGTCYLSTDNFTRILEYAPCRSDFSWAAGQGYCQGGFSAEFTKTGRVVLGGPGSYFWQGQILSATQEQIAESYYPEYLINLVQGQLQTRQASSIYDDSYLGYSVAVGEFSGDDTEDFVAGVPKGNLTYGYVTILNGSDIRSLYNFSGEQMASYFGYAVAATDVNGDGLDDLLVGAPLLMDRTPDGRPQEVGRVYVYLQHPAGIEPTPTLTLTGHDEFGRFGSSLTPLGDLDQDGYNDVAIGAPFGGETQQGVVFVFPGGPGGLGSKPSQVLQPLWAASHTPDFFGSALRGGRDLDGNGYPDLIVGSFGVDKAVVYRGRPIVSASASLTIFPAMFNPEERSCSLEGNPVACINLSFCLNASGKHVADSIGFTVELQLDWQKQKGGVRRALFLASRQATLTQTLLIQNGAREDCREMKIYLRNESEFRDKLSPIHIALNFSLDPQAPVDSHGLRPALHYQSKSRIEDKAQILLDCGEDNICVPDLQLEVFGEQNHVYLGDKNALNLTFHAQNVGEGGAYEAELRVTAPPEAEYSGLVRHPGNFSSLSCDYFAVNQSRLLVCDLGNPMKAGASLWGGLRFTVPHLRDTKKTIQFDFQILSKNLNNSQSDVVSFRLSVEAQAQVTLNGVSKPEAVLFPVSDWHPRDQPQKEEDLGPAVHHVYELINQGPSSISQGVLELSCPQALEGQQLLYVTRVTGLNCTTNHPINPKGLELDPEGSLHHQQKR
Chain of recombinant human α5β1 integrin (P08648 895-1049 partner limits assumed): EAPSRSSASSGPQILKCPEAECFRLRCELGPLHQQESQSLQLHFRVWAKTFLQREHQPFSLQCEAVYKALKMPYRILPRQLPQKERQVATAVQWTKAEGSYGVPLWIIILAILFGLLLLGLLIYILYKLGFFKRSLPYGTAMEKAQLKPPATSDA
Chain of recombinant human α5β1 integrin (P05556 21-798): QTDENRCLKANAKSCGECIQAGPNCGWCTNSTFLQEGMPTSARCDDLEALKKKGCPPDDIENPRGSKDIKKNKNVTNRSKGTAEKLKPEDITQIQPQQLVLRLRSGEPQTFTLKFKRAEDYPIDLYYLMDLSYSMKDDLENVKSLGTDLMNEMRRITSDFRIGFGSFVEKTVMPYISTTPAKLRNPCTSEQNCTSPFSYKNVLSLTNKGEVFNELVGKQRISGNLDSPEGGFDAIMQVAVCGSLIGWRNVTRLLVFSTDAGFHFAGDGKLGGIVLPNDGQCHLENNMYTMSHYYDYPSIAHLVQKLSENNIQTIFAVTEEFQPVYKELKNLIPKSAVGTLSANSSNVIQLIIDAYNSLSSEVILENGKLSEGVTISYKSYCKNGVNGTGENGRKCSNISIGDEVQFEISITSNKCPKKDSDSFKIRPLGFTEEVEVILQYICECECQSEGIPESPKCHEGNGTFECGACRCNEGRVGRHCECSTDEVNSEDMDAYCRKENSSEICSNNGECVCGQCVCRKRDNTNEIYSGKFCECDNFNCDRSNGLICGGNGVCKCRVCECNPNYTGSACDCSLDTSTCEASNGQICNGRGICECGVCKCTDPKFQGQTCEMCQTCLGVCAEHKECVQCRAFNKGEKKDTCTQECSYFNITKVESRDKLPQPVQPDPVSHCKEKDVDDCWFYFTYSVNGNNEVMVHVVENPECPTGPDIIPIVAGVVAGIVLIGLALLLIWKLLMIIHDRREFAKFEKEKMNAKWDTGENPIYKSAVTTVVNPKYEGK
From the text: The assay determined the ability of compounds to inhibit binding of α5β1 integrin to a cognate ligand, a fragment of human fibronectin. The assay used Origen technology (IGEN International) to measure the compound activity. Briefly, α5β1 integrin was coated onto epoxy-paramagnetic beads (Dynal Biotech UK, Bromborough, Wirral, CH62 3QL, UK, Catalogue No 140.11) and biotinylated-fibronectin ligand was coupled to strepatividin labeled Tag-NHS-Ester (BioVeris Corporation, Witney, Oxfordshire, OX28 4GE, UK, Catalogue No 110034). The ruthenium-labeled tag emits an electrochemiluminescence signal upon stimulation which is detected by the Origen reader. Thus, interaction of integrin and ligand causes association of bead and tag, and the resulting electrochemiluminescence signal reflects the level of integrin interaction with fibronectin.
20 μg of recombinant human α5β1 was coated onto 4×10(7) epoxy-paramagnetic beads according to manufacturers instructions at 4° C. for 24 hours. Integrin coating and corresponding activity was subsequently measured for each batch but typically, 25 ng of coated protein was used per assay well.
A DNA fragment encoding the domains 9-10 (amino-acids 1325-1509) of human fibronectin (Swiss-Prot Accession No. P02751) was isolated from cDNA libraries using standard molecular biology and PCR cloning techniques. The cDNA fragment was sub-cloned into a pT73.3 expression vector containing a GST-epitope tag (developed at AstraZeneca; Bagnall et al., Protein Expression and Purification, 2003, 27: 1-11). Following expression in E. coli, the expressed protein, termed Fn9-10, was purified using the GST-tag using standard purification techniques. The recombinant Fn9-10 was subsequently biotinylated using a EZ-link Sulfo-NHS-LC-Biotinylation kit (Perbio Science UK Ltd., Cramlington, Northumberland, NE231WA, UK, Catalogue No. 21335) and made to give a final concentration of approximately 1 mg/mil. Tag-NHS-Ester was labeled with streptavidin by incubation at room temperature following manufacturers instructions and buffer-exchanged into PBS to give a concentration of 0.5 mg/ml. Immediately prior to the assay, biotinylated-Fn9-10 and Streptavidin-labeled Tag were diluted in Assay Buffer to give a final concentrations of 0.6 ug/ml and 1.5 ug/ml respectively. The Fn9-10 and Tag solutions were then mixed together in equal volumes and incubated on ice for at least 30 minutes prior to the assay.
Test compounds were prepared as 10 mM stock solutions in DMSO (Sigma-Aldrich Company Ltd, Gillingham, Dorset SP8 4XT Catalogue No. 154938) and serially diluted with 4% DMSO to give a range of test concentrations at ×4 required final concentration. Aliquots (20 μl) of each compound dilution were placed into each well of a 384-well round bottomed polypropylene plate (Matrix Technologies, Wilmslow, Cheshire, SK9 3LP, Catalogue No. 4340 384). Each plate also contained control wells: maximum signal was created using wells containing 20 μl of 4% DMSO, and minimum signal corresponding to no binding was created using wells containing 20 μl of 80 mM EDTA (Sigma Catalogue No. E7889).
For the assay, 25 ng (20 ul) of a5b1-bead suspension and […] of the Fn9-10/Tag pre-incubated solution were added to each well containing 20 μl of compound or control solution. Assay plates were then incubated at room temperature for a minimum of 6 hours before being analysed on an Origen plate reader. […]

[2] = test system: α5β1 integrin mediated adhesion of K562 cells; experiment: In vitro cell adhesion assay (b): inhibition of α5β1 integrin mediated adhesion of K562 cells to fibronectin fragment Fn9-10; type: cell-based, human
From the text: The assay determined the ability of compounds to inhibit the α5β1 integrin mediated adhesion of K562 cells to the ligand, a fragment of human fibronectin. The human K562 erythroleukaemia cell line (LGC Promochem, Teddington, Middlesex, UK, Catalogue No. CCL-243) was routinely maintained in RPMI 1640 medium (Sigma-Aldrich Company Ltd, Gillingham, Dorset SP8 4XT, Catalogue No. R0883) containing 10% heat-inactivated foetal calf serum (PAA lab GmbH, Pasching, Austria Catalogue No. PAA-A15-043) and 1% glutamax-1 (Invitrogen Ltd. Paisley, UK Catalogue No. 35050-038) at 37° C. with 5% CO2 at densities between 1×10^5 and 1×10^6 cells/ml.
A DNA fragment encoding the domains 9-10 (amino-acids 1325-1509) of human fibronectin (Swiss-Prot Accession No. P02751) was isolated from cDNA libraries using standard molecular biology and PCR cloning techniques. The cDNA fragment was sub-cloned into a pT7#3.3 expression vector containing a GST-epitope tag (developed at AstraZeneca; Bagnall et al., Protein Expression and Purification, 2003, 27: 1-11), and the fragment termed Fn9-10. Following expression in E. coli, the expressed protein was purified using the GST-tag using standard purification techniques.
For adhesion assay, a 96-well flat bottomed plate (Greiner Bio one ltd., Gloucester GL10 3SX Catalogue No. 655101) was coated overnight at 4° C. with 100 μl of 20 μg/ml Fn9-10 ligand in Dulbecco's PBS (Gibco#14190-94). The plate was then washed twice with 200 μl of PBS and blocked with 100 μl of 3% BSA (SigmaA7888) in PBS for 1 hour at 37° C. The plates were then washed again 3 times with 200 μl of PBS and left empty.
Test compounds were prepared as 10 mM stock solutions in DMSO (Sigma-Aldrich Company Ltd, Gillingham, Dorset SP8 4XT Catalogue No. 154938) and serially diluted with HBSS (Hanks Buffered Salt solution (Gibco Catalogue No. 14170-088)/2% DMSO to give a range of test concentrations at twice required final concentration. Aliquots (50 μl) of each compound dilution were placed into each well of the Fn9-10 coated plates. Each plate also contained control wells: maximum adhesion signal was created using wells containing 50 μl HBSS/2% DMSO, and minimum signal corresponding to no adhesion was created using wells containing 50 μl HBSS/2% DMSO/20 mM EDTA (Sigma Catalogue No. E7889).
The K562 cells were cultured to 1×10^6 cells/ml, and each culture suspension pooled. Cells were centrifuged at 1200 rpm for 2 mins, and the pellets washed with HBSS followed by HBSS/50 mM HEPES (Sigma Catalogue No. H0887). Cell pellets were pooled and re-suspended in HBSS/0.4 mM manganese chloride/50 mM HEPES (MnCl; Sigma Catalogue No. M1787) to give a final concentration of 4×10^6 cells/ml.
The assay was initiated by the addition of 50 μl of cell suspension into each coated well (200,000 cells/well), thus resulting in final desired compound concentration and a final MnCl concentration of 0.2 mM. The plates were incubated for 45 minutes at 37° C. 5% CO2. After this time, the solution was flicked off as waste, and the remaining cell layer carefully washed twice with 200 μl of PBS, and then fixed with 200 μl of 100% ethanol for 30 minutes.
After fixation, the ethanol was flicked off to waste and 100 μl of 0.1% Crystal violet stain was added to each well, and incubated at ambient temperature for 15 minutes. Excess stain was removed by rinsing 3 times under cold slow running water. The plates were blotted over tissue then solubilised by adding 50 μl of 1% Triton X100 (Sigma Catalogue No. T9284) and shaking at 500 rpm for 30 mins on plate shaker. Finally, 100 μl of deionised water was added to each well and the absorbance was determined at 590 nm on a spectrophotometer. The minimum value was subtracted from all values, and the absorbance signal was plotted against compound concentration to generate IC50 data.

[3] = Homo sapiens, K562, geometric mean of the measured IC50 values, n given below each value, read-out: Adhesion Assay (b) IC50

SMILES | IC50 [1] | IC50 [2, 3] | IC50 ([2]; Homo sapiens, K562, single determinations listed in brackets under the geometric mean (n = 3), read-out: Adhesion Assay (b) IC50, individual measured values) | IC50 ([2]; single determinations listed in brackets under the geometric mean (n = 3), read-out: Adhesion Assay (b) IC50, individual measured values)
O=C(N[C@@H](Cc1ccc(CCCc2ccc3c(n2)NCCC3)s1)C(=O)O)c1c(Cl)cncc1Cl [Example 3, N-(3,5-dichloroisonicotinoyl)-3-{5-[3-(5,6,7,8-tetrahydro-1,8-naphthyridin-2-yl)propyl]-thiophen-2-yl}-L-alanine] | 0.3 nM | < 4 nM | 5 nM | < 3 nM
O=C(N[C@@H](Cc1ccc(OCCc2ccc3c(n2)NCCC3)s1)C(=O)O)c1c(Cl)cncc1Cl [Example 4, N-(3,5-dichloroisonicotinoyl)-3-{5-[2-(5,6,7,8-tetrahydro-1,8-naphthyridin-2-yl)ethoxy]-2-thienyl}-L-alanine] | < 1 nM | < 3 nM |  | 
Cc1noc(C)c1C(=O)N[C@@H](Cc1ccc(CCCc2ccc3c(n2)NCCC3)s1)C(=O)O [Example 2, N-[(3,5-dimethylisoxazol-4-yl)carbonyl]-3-{5-[3-(5,6,7,8-tetrahydro-1,8-naphthyridin-2-yl)propyl]thiophen-2-yl}-L-alanine] | < 1 nM | 12 nM |  | 

Now from value to compound:

IC50 [1] | IC50 [2, 3] | IC50 ([2]; Homo sapiens, K562, single determinations listed in brackets under the geometric mean (n = 3), read-out: Adhesion Assay (b) IC50, individual measured values) | IC50 ([2]; single determinations listed in brackets under the geometric mean (n = 3), read-out: Adhesion Assay (b) IC50, individual measured values) | SMILES
1 nM | 8 nM |  |  | CNc1cccc(CCCc2ccc(C[C@H](NC(=O)c3c(Cl)cncc3Cl)C(=O)O)s2)n1 [Example 1.2, N-[(3,5-dichloropyridin-4-yl)carbonyl]-3-(5-{3-[6-(methylamino)pyridin-2-yl]propyl}thiophen-2-yl)-L-alanine]
4 nM | 27 nM |  |  | CNc1cccc(CCCc2ccc(C[C@H](NC(=O)c3c(C)noc3C)C(=O)O)s2)n1 [Example 1.1, N-[(3,5-dimethylisoxazol-4-yl)carbonyl]-3-(5-{3-[6-(methylamino)pyridin-2-yl]propyl}thiophen-2-yl)-L-alanine]
